Data published in patent US11110082B2, “Tyrosine kinase inhibitors” (Rigel Pharmaceuticals, Inc., priority 2016, dated 2021).

target: T1, MerTK (Homo sapiens, UniProt Q12866); test: PAKT HTRF-HUVEC assay (pAkt Ser473 HTRF after anti-human MerTK-XL stimulation); assay type: cell-based; details: HUVEC cells, 1 hour compound, stimulated with anti-human MerTK-XL 1 ug/mL for 10 minutes, read-out: inhibition of MerTK
T1 construct: Seed HUVECs (10K cells/well) in EBM-2 complete media; host or cells: HUVEC (primary human umbilical vein endothelial cells)
T1 sequence (Q12866 21-999): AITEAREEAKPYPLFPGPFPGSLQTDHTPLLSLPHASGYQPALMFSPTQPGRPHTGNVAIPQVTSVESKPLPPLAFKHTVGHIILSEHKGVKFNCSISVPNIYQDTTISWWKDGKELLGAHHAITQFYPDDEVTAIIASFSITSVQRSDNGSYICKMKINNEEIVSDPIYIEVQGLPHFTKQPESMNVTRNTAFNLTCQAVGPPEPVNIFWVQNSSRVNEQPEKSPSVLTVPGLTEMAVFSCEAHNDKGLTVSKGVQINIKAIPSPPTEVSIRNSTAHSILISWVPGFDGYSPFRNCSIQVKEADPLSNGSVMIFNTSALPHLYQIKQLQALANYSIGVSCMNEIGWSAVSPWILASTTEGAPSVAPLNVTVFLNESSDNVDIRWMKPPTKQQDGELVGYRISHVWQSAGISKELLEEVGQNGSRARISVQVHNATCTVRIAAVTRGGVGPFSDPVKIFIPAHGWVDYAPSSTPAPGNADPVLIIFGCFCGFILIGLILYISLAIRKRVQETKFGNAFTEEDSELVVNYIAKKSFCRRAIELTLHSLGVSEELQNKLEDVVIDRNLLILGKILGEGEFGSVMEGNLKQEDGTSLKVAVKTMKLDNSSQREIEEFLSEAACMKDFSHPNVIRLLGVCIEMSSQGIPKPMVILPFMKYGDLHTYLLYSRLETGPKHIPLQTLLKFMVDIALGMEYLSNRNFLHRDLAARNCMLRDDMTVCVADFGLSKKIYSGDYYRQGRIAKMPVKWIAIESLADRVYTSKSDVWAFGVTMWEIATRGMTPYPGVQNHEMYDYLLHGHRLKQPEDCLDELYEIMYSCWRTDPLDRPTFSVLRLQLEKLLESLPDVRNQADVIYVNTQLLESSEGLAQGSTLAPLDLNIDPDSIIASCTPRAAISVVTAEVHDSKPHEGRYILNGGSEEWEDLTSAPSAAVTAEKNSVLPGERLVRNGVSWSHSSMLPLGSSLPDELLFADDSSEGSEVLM
Experimental: Example 4: PAKT HTRF-HUVEC Assay Phospho Akt (Ser473) Assay kit-10,000 tests (Cisbio US, 64[…]) HUVEC cells (Lonza, CC-2519) Anti-human MerTK antibody (Clone 125518) (R&D Systems, MAB8912) Method Seed HUVECs (10K cells/well) in EBM-2 complete media (EBM-2 basal medium plus EGM-2 BulletKit supplements) overnight at 37° C., 5% CO2 in Costar 96-well white clear-bottom plates. Remove culture media and starve cells for 3-4 hours in 50 μL/well EBM-2 basal medium. Perform serial dilution of compounds in DMSO from 2.5 mM in 4-fold dilutions, and then dilute 1:125 in EBM-2 basal media. Mix 50 μL/well 2x compounds with 50 μL/well HUVECs in duplicate in Costar 96-well white clear-bottom plates. Incubate plates for 1 hour at 37° C., 5% CO2. Cross-link anti-human MerTK antibody to Biotin-SP-conjugated anti-mouse IgG antibody (1:1) to give final concentrations of 5 ug/mL of anti-human MerTK-XL. Stimulate HUVECs with 25 μL/well 5x anti-human MerTK-XL to give final concentrations of 1 ug/mL for 10 minutes at 37° C., 5% CO2. Completely remove media and lyse HUVECs with 40 uL/WELL per well of Cisbio HTRF 1× lysis buffer. Performed pAkt(Ser473) HTRF assay in ProxiPlate-384 Plus, white 384-shallow well microplate according to the vendor protocol and read plates with a SpectralMax Paradigm plate reader. Enter the HTRF values into Athena (Rigel) for curve fitting, EC50 calculation, and database storage.

Row | SMILES | EC50 [nM]
1 | C[C@@H]1CN(c2ccc3c(c2)c(=O)n([C@H]2CC[C@H](O)CC2)c2nc(NCC4CC4)ncc32)[C@@H](C)CN1C [Compound 107, trans-3-((Cyclopropylmethyl)amino)-5-(4-hydroxycyclohexyl)-8-((2S,5R)-2,4,5-trimethylpiperazin-1-yl)pyrimido[4,5-c]isoquinolin-6(5H)-one] | 58.2
2 | O=c1c2cc(N3CCN(CC(F)F)CC3)ccc2c2cnc(NCC3CC3)nc2n1[C@H]1CC[C@H](O)CC1 [Compound 169] | 354
3 | CCCCNc1ncc2c3ccc(CN4CCN(C)CC4)cc3c(=O)n([C@H]3CCC[C@H](O)CCC3)c2n1 [Compound 127, 3-(Butylamino)-5-((1r,5r)-5-hydroxycyclooctyl)-8-((4-methylpiperazin-1-yl)methyl)pyrimido[4,5-c]isoquinolin-6(5H)-one] | 89.1
4 | CCCCNc1ncc2c3ccc(CN4CCN(C)CC4)cc3c(=O)n([C@H]3CC[C@H](C(N)=O)CC3)c2n1 [Compound 131, trans-4-(3-(Butylamino)-8-((4-methylpiperazin-1-yl)methyl)-6-oxopyrimido[4,5-c]isoquinolin-5(6H)-yl)cyclohexane-1-carboxamide] | 54.6
5 | CCCCNc1ncc2c3ccc(N4CCC(N5CCCC5)CC4)cc3c(=O)n([C@H]3CC[C@H](O)CC3)c2n1 [Compound 71, trans-3-(Butylamino)-5-(4-hydroxycyclohexyl)-8-(4-(pyrrolidin-1-yl)piperidin-1-yl)pyrimido[4,5-c]isoquinolin-6(5H)-one] | 33.4
6 | CCCCNc1ncc2c3ccc(N4CCN5CCC4CC5)cc3c(=O)n(C3CCC(=O)CC3)c2n1 [Compound 82, 8-(1,4-Diazabicyclo[3.2.2]nonan-4-yl)-3-(butylamino)-5-(4-oxocyclohexyl)pyrimido[4,5-c]isoquinolin-6(5H)-one] | 216
7 | O=c1c2ccccc2c2cnc(NCC3CC3)nc2n1[C@H]1CC[C@H](O)CC1 [Compound 114, trans-3-((Cyclopropylmethyl)amino)-5-(4-hydroxycyclohexyl)pyrimido [4,5-c]isoquinolin-6(5H)-one] | 743
8 | CC1(O)CCC(n2c(=O)c3cc(CN4CCOCC4)ccc3c3cnc(NCC4CC4)nc32)CC1 (stereo not shown) [Compound 156] | 116
9 | CC1(O)CCC(n2c(=O)c3cc(CN4CCC(N5CCCC5)CC4)ccc3c3cnc(NCC4CC4)nc32)CC1 (stereo not shown) [Compound 150] | 33.3
10 | CC(C)N1CCN(Cc2ccc3c(c2)c(=O)n(C2CCC(C)(O)CC2)c2nc(NCCC4CC4)ncc32)CC1 (stereo not drawn) [Compound 32, trans-3-((2-Cyclopropylethyl)amino)-5-(4-hydroxy-4-methylcyclohexyl)-8-((4-isopropylpiperazin-1-yl)methyl)pyrimido[4,5-c]isoquinolin-6(5H)-one] | 6.5
11 | O=c1c2cc(CN3CCSCC3)ccc2c2cnc(NCC3CC3)nc2n1[C@H]1CC[C@H](O)CC1 [Compound 53, trans-3-((Cyclopropylmethyl)amino)-5-(4-hydroxycyclohexyl)-8-(thiomorpholinomethyl)pyrimido [4,5-c]isoquinolin-6(5H)-one] | 36.3
12 | CN1CCN(Cc2ccc3c(c2)c(=O)n([C@H]2CC[C@H](O)CC2)c2nc(NCC4CC4)ncc32)CC1 [Compound 16, trans-3-((Cyclopropylmethyl)amino)-5-(4-hydroxycyclohexyl)-8-((4-methylpiperazin-1-yl)methyl)pyrimido[4,5-c]isoquinolin-6(5H)-one] | 63.9
13 | C[C@]1(O)CC[C@H](n2c(=O)c3cc(CN4CCC(N5CCCC5)CC4)ccc3c3cnc(NCC4CC4)nc32)CC1 [Compound 38, trans-3-((Cyclopropylmethyl)amino)-5-(4-hydroxy-4-methylcyclohexyl)-8-((4-(pyrrolidin-1-yl)piperidin-1-yl)methyl)pyrimido[4,5-c]isoquinolin-6(5H)-one] | 33.3
14 | CCCCNc1ncc2c3ccc(CN4CCN(C)CC4)cc3c(=O)n(CC3CCC(N)CC3)c2n1 (stereo not shown) [Compound 10, 5-((4-Aminocyclohexyl)methyl)-3-(butylamino)-8-((4-methylpiperazin-1-yl)methyl)pyrimido[4,5-c]isoquinolin-6(5H)-one] | 146
15 | CCC1(CNc2ncc3c4ccc(N5CCN(C)CC5)cc4c(=O)n([C@H]4CC[C@H](O)CC4)c3n2)CC1 [Compound 94, trans-3-(((1-Ethylcyclopropyl)methyl)amino)-5-(4-hydroxycyclohexyl)-8-(4-methylpiperazin-1-yl)pyrimido[4,5-c]isoquinolin-6(5H)-one] | 1100

Continued by falling EC50, values first:

Row | EC50 [nM] | SMILES
16 | 13500 | O=c1c2cc(CN3CCC(c4nnn[nH]4)CC3)ccc2c2cnc(NCC3CC3)nc2n1C1CCC(O)CC1 (stereo not shown) [Compound 143, 8-((4-(1H-tetrazol-5-yl)piperidin-1-yl)methyl)-3-((cyclopropylmethyl)amino)-5-((1s,4s)-4-hydroxycyclohexyl)pyrimido[4,5-c]isoquinolin-6(5H)-one]
17 | 11300 | O=C(O)C1CCN(Cc2ccc3c(c2)c(=O)n([C@H]2CC[C@H](O)CC2)c2nc(NCC4CC4)ncc32)CC1 [Compound 200, trans-1-((3-((Cyclopropylmethyl)amino)-5-(4-hydroxycyclohexyl)-6-oxo-5,6-dihydropyrimido[4,5-c]isoquinolin-8-yl)methyl)piperidine-4-carboxylic acid]
18 | 512 | CCCCNc1ncc2c3ccc(CN4CCN(C)CC4)cc3c(=O)n([C@H]3CC[C@H](NC(C)=O)C3)c2n1 [Compound 233, N-((1S,3S)-3-(3-(butylamino)-8-((4-methylpiperazin-1-yl)methyl)-6-oxopyrimido[4,5-c]isoquinolin-5(6H)-yl)cyclopentyl)acetamide]
19 | 380 | O=c1c2cc(N3CCN(C4COC4)CC3)ccc2c2cnc(NCC3CC3)nc2n1[C@H]1CC[C@H](O)CC1 [Compound 178]
20 | 293 | N[C@H]1CC[C@H](n2c(=O)c3cc(Cl)ccc3c3cnc(NCC4CC4)nc32)CC1 [Compound 205]
21 | 85.6 | O=c1c2cc(CN3CCC4(CC3)COC4)ccc2c2cnc(NC3CC(F)(F)C3)nc2n1[C@H]1CC[C@H](O)CC1 [Compound 210, trans-8-((2-Oxa-7-azaspiro[3.5]nonan-7-yl)methyl)-3-((3,3-difluorocyclobutyl)amino)-5-(4-hydroxycyclohexyl)pyrimido[4,5-c]isoquinolin-6(5H)-one]
22 | 51.3 | O=c1c2cc(CN3CCN(CC(F)F)CC3)ccc2c2cnc(NCC3CC3)nc2n1[C@H]1CC[C@H](O)CC1 [Compound 153]
23 | 44.9 | CCCCNc1ncc2c3ccccc3c(=O)n(C3CCC(C)(O)CC3)c2n1 (stereo not drawn) [Compound 113, trans-3-(Butylamino)-5-(4-hydroxy-4-methylcyclohexyl)pyrimido [4,5-c]isoquinolin-6(5H)-one]
24 | 28.7 | CN1CCN(Cc2ccc3c(c2)c(=O)n([C@H]2CC[C@H](N)CC2)c2nc(NCC4CC4)ncc32)CC1 [Compound 185, trans-5-(4-aminocyclohexyl)-3-((cyclopropylmethyl)amino)-8-((4-methylpiperazin-1-yl)methyl)pyrimido[4,5-c]isoquinolin-6(5H)-one]
25 | 16.8 | C[C@]1(O)CC[C@H](n2c(=O)c3cc(CN4CCN(C5COC5)CC4)ccc3c3cnc(NCC4CC4)nc32)CC1 [Compound 36, trans-3-((Cyclopropylmethyl)amino)-5-(4-hydroxy-4-methylcyclohexyl)-8-((4-(oxetan-3-yl)piperazin-1-yl)methyl)pyrimido[4,5-c]isoquinolin-6(5H)-one]
